# Measurements: US20040038855A1 (priority 1999, published 2004)
# pKi: −log10 of the molar value. Like-named read-outs stand apart in the source and are kept apart here.
# Tests used:
# [1] = molecular target: T1, rat MCH1 receptor (Rattus norvegicus, UniProt P97639); test: Binding affinity (Ki) at the rat MCH1 receptor; settings: for Ki: read-out: Ki (nM) rMCH1; for pKi: Table 3c, read-out: rMCH1 Ki
# T1 construct: expressed in transfected cells
# Protocol: For binding assays, pellets of transfected cells are suspended in ice-cold buffer (20 mM Tris.HCl, 5 mM EDTA, pH 7.4) and homogenized by sonication for 7 sec. The cell lysates are centrifuged at 200×g for 5 min at 4° C. The supernatants are then centrifuged at 40,000×g for 20 min at 4° C. The resulting pellets are washed once in the homogenization buffer and suspended in binding buffer (see methods for radioligand binding). Protein concentrations are determined by the method of Bradford (1976) using bovine serum albumin as the standard. Binding assays are usually performed immediately, however it is possible to prepare membranes in batch and store frozen in liquid nitrogen for future use.
# Binding is performed at 25° C. for 1 hr. Incubations are terminated by rapid vacuum filtration over GF/C glass fiber filters, presoaked in 5% PEI using 50 mM Tris pH 7.4 containing 0.01% triton X-100 as wash buffer.
# A methanolic solution of methyl (4S)-3-({[3-(4-[3-(acetylamino)phenyl]-3,6-dihydro-1(2H)pyridinyl)propyl]amino}carbonyl)-4-(3,4-difluorophenyl)-6-(methoxymethyl)-2-oxo-1,2,3,4-tetrahydro-5-pyrimidinecarboxylate was exposed to tritium gas at 1 atmosphere pressure in the presence of 5% palladium on carbon with stirring overnight to give the tritiated methyl (4S)-3-{[(3-{4-[3-(acetylamino)phenyl]-1-piperidinyl}propyl)amino]carbonyl}-4-(3,4-difluorophenyl)-6-(methoxymethyl)-2-oxo-1,2,3,4-tetrahydro-5-pyrimidinecarboxylate ((+)-isomer) After purification by reverse phase HPLC (Hypersil ODS, 4.6×100 mm, methanol:H2O:Et3N 10:90:1 to 100:0:1 in 15 min at 1.0 mL/min, with radiochemical and UV detection), this product was used as a radioligand in the MCH1 binding assays. The same procedure was carried out with H2 gas in place of ^3H2 to afford the non-radioactive version of Compound 10.
# [2] = molecular target: T2, human Alpha-1a Adrenergic receptor (Homo sapiens, UniProt P35348); test: Binding affinity at the human alpha-1A adrenergic receptor; settings: Table 3c; read-out: hAlpha-1a Ki
# T2 construct: expressed in transfected cells
# T2 sequence (P35348 1-466): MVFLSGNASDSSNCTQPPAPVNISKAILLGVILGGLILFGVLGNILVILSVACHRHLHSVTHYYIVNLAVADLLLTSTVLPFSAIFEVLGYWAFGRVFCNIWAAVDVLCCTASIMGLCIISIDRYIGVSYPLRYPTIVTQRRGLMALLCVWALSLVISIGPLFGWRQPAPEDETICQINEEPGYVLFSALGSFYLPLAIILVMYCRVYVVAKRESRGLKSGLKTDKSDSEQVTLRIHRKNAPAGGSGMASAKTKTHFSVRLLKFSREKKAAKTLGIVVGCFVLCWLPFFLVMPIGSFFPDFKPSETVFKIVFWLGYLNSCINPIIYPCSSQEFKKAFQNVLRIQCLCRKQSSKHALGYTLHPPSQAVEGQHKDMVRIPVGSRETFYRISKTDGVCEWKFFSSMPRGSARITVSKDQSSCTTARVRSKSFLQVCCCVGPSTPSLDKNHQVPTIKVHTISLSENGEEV
# Source text: (§1) Other receptors: Cell membranes expressing human dopamine D1, D2, D4 and rat D3 receptors were purchased through BioSignal, Inc. (Montreal, Canada). Binding assays using the histamine H1 receptor; dopamine receptors; and α1A, α1B, and α2 adrenergic receptors may be carried out according to the procedures described in U.S. Pat. No. 5,780,485, the disclosure of which is hereby incorporated by reference in its entirety into this application. Binding assays using the dopamine D5 receptor may be carried out according to the procedures described in U.S. Pat. No. 5,882,855, the disclosure of which is hereby incorporated by reference in its entirety into this application. Binding assays for the human α1D adrenergic receptor may be carried out according to the procedures described in U.S. Pat. No. 6,156,518, the disclosure of which is hereby incorporated by reference in its entirety into this application.
# [3] = molecular target: T3, human Dopamine D2 receptor (Homo sapiens, UniProt P14416); test: Binding affinity at the human dopamine D2 receptor; settings: Table 3c; read-out: hD2 Ki
# T3 construct: purchased BioSignal, Inc. (Montreal, Canada)
# Source text: as §1
# [4] = molecular target: T4, human Histamine H1 receptor (Homo sapiens, UniProt P35367); test: Binding affinity at the human histamine H1 receptor; settings: Table 3c; read-out: hH1 Ki
# T4 construct: expressed in transfected cells
# Source text: as §1
# T1 sequence (P97639 whole entry): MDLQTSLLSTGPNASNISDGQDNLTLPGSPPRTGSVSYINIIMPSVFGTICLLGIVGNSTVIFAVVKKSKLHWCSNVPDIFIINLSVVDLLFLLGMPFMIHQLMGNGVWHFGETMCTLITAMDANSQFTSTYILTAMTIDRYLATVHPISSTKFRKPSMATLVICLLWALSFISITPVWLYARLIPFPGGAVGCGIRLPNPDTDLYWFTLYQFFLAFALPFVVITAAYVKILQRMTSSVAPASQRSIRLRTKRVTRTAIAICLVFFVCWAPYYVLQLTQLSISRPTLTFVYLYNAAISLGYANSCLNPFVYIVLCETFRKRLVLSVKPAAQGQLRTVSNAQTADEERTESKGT
# T3 sequence (P14416 whole entry): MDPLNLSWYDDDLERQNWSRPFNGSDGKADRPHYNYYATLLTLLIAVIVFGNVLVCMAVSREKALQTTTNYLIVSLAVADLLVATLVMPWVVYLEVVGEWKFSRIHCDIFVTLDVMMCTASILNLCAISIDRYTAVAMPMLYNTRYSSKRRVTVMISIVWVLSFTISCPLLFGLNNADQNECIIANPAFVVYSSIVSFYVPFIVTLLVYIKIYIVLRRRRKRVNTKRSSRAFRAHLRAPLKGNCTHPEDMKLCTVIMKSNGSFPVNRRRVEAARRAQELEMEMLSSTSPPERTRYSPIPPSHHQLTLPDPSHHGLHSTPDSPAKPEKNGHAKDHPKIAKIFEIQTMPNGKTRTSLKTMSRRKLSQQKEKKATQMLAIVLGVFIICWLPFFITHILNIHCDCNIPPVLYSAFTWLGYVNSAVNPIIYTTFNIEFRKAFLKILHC
# T4 sequence (P35367 whole entry): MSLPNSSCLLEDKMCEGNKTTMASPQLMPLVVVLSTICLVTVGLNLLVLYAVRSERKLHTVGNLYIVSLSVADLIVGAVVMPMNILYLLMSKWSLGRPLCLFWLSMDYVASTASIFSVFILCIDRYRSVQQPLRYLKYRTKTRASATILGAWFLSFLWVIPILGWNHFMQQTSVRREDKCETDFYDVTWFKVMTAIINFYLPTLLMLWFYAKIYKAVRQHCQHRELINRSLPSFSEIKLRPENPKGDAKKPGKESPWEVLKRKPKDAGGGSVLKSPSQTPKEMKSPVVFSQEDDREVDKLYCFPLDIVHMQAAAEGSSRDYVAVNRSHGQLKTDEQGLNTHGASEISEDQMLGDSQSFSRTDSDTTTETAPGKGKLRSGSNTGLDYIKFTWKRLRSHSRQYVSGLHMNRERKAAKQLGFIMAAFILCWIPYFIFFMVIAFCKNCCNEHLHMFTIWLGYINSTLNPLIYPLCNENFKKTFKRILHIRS
Structure (SMILES),Ki ([1]; Examples 38-141),pKi [1],pKi [2],pKi [3],pKi [4],Ki ([1]; Examples 142-153)
"COCC1=C(C(=O)OC)[C@H](c2ccc(F)c(F)c2)N(C(=O)NCCCN2CCC(c3cccc(N)c3)CC2)C(=O)N1 [Example 38, METHYL (4S)-3-[({3-[4-(3-AMINOPHENYL)-1-PIPERIDINYL]PROPYL}AMINO)CARBONYL]-4-(3,4-DIFLUOROPHENYL)-6-(METHOXYMETHYL)-2-OXO-1,2,3,4-TETRAHYDRO-5-PYRIMIDINECARBOXYLATE]",1.34 nM,8.87,7.62,5.63,6.42,
COCC1=C(C(=O)NCCCN2CCC(c3cccc(NC(=O)CC(C)(C)C)c3)CC2)[C@@H](c2ccc(F)c(F)c2)NC(=O)N1 [Example 49],225 nM,6.65,,,,
CC(=O)Nc1cccc(C2CCN(CCCNC(=O)N3C(=O)NC4=C(C(=O)OC4)C3c3ccc4nonc4c3)CC2)c1 (centres unmarked) [Example 55],204 nM,6.69,,,,
Cc1ccc(C(=O)CCCN2CCC(c3cccc(NC(=O)C4CCCCC4)c3)CC2)cc1C [Example 59],768 nM,6.11,,,,
Cc1ccc(C(=O)CCCN2CCC(c3cccc(NC(=O)Cc4ccccc4)c3)CC2)cc1C [Example 60],357 nM,6.45,,,,
COCC(=O)Nc1cccc(C2CCN(CCCC(=O)c3ccc(C)c(C)c3)CC2)c1 [Example 62],274 nM,6.56,,,,
Cc1ccc(C(=O)CCCN2CCC(c3cccc(NS(C)(=O)=O)c3)CC2)cc1C [Example 63],1000 nM,6.00,,,,
CCS(=O)(=O)Nc1cccc(C2CCN(CCCC(=O)c3ccc(C)c(C)c3)CC2)c1 [Example 64],627 nM,6.20,,,,
O=C(CCCN1CCC(c2cccc(NC(=O)C3CCCCC3)c2)CC1)c1ccc(Cl)cc1 [Example 67],197 nM,6.71,,,,
COc1cccc(CC(=O)Nc2cccc(C3CCN(CCCC(=O)c4ccc(Cl)cc4)CC3)c2)c1 [Example 69],11.9 nM,7.92,7.21,,,
COCC(=O)Nc1cccc(C2CCN(CCCC(=O)c3ccc(Cl)cc3)CC2)c1 [Example 70],167 nM,6.78,,,,
CS(=O)(=O)Nc1cccc(C2CCN(CCCC(=O)c3ccc(Cl)cc3)CC2)c1 [Example 71],720 nM,6.14,,,,
CCS(=O)(=O)Nc1cccc(C2CCN(CCCC(=O)c3ccc(Cl)cc3)CC2)c1 [Example 72],272 nM,6.57,,,,
CC(=O)Nc1cccc(C2CCN(CCCC(=O)c3ccccc3)CC2)c1 [Example 73],342 nM,6.47,,,,
CC(C)C(=O)Nc1cccc(C2CCN(CCCC(=O)c3ccccc3)CC2)c1 [Example 74],29.5 nM,7.53,6.94,6.11,,
O=C(Cc1ccccc1)Nc1cccc(C2CCN(CCCC(=O)c3ccccc3)CC2)c1 [Example 75],506 nM,6.30,,,,
COc1cccc(CC(=O)Nc2cccc(C3CCN(CCCC(=O)c4ccccc4)CC3)c2)c1 [Example 76],21 nM,7.68,7.38,6.33,,
COc1ccc(C(=O)CCCN2CCC(c3cccc(NC(C)=O)c3)CC2)c(OC)c1 [Example 77],630 nM,6.20,,,,
COc1ccc(C(=O)CCCN2CCC(c3cccc(NC(=O)Cc4ccccc4)c3)CC2)c(OC)c1 [Example 79],1040 nM,5.98,,,,
COc1cccc(CC(=O)Nc2cccc(C3CCN(CCCC(=O)c4ccc(OC)cc4OC)CC3)c2)c1 [Example 80],67 nM,7.17,6.90,5.90,,
CC(=O)Nc1cccc(C2CCN(CCCC(=O)c3ccc(Oc4ccccc4)cc3)CC2)c1 [Example 81],463 nM,6.33,,,,
CC(C)C(=O)Nc1cccc(C2CCN(CCCC(=O)c3ccc(Oc4ccccc4)cc3)CC2)c1 [Example 82],192 nM,6.72,6.29,5.70,,

Structure (SMILES),Ki ([1]; Examples 38-141),pKi [1],pKi [2],pKi [3],pKi [4],Ki ([1]; Examples 142-153)
COc1cccc(CC(=O)Nc2cccc(C3CCN(CCCC(=O)c4ccc(Oc5ccccc5)cc4)CC3)c2)c1 [Example 83],91 nM,7.04,6.89,6.30,,
CN(C)S(=O)(=O)Nc1cccc(C2CCN(CCCC(=O)c3ccc(Cl)cc3)CC2)c1 [Example 84],511 nM,6.29,,,,
CC(=O)Nc1cccc(C2CCN(CCCC(=O)c3cccs3)CC2)c1 [Example 85],654 nM,6.18,,,,
CC(=O)Nc1cccc(C2CCN(CCCC(=O)c3ccc(C(C)C)cc3)CC2)c1 [Example 86],382 nM,6.42,,,,
CC(=O)Nc1cccc(C2CCN(CCCC(=O)c3ccc(C)cc3)CC2)c1 [Example 87],362 nM,6.44,,,,
CC(=O)Nc1cccc(C2CCN(CCCC(=O)c3ccc(Br)cc3)CC2)c1 [Example 88],160 nM,6.80,,,,
Cc1ccc(C(=O)CCCN2CCC(c3cccc(NS(=O)(=O)C(C)C)c3)CC2)cc1C [Example 89],615 nM,6.21,,,,
CC(C)S(=O)(=O)Nc1cccc(C2CCN(CCCC(=O)c3ccc(Oc4ccccc4)cc3)CC2)c1 [Example 90],651 nM,6.19,,,,
CC(C)C(=O)Nc1cccc(C2CCN(CCCN3C(=O)c4ccccc4C3=O)CC2)c1 [Example 97],946 nM,6.02,,,,
CC(C)C(=O)Nc1cccc(C2CCN(CC[C@H](O)c3ccccc3)CC2)c1 [Example 98],118 nM,6.93,,,,
COc1cccc(CN2CCC(c3cccc(NC(=O)C(C)C)c3)CC2)c1 [Example 102],187 nM,6.73,,,,
CC(C)C(=O)Nc1cccc(C2CCN(CC[C@H](Oc3ccc(-c4ccccc4)cc3)c3ccccc3)CC2)c1 [Example 134],22.2 nM,7.65,5.88,7.42,,
CC(C)C(=O)Nc1cccc(C2CCN(CC[C@H](Oc3cccc4ccccc34)c3ccccc3)CC2)c1 [Example 137],377 nM,6.42,,,,
CC(C)C(=O)Nc1cccc(C2CCN(CC[C@@H](c3ccccc3)N3C(=O)c4ccccc4C3=O)CC2)c1 [Example 138],11.2 nM,7.95,,,,
CC(C)C(=O)Nc1cccc(C2CCN(CC[C@H](Oc3ccc(Oc4ccccc4)cc3)c3ccccc3)CC2)c1 [Example 139],48.1 nM,7.32,,,,
COc1ccc(O[C@H](CCN2CCC(c3ccc(NC(=O)C(C)C)cc3)CC2)c2ccccc2)cc1OC [Example 140],121 nM,6.92,,,,
CC(C)C(=O)Nc1cccc(C2CCN(Cc3c[nH]c4cc(Cl)ccc34)CC2)c1 [Example 142],,,,,,20.6 nM
Cc1ccc(-n2cc(CN3CCC(c4cccc(NC(=O)C(C)C)c4)CC3)c3ccccc32)cc1 [Example 143],,,,,,14.9 nM
CCC(=O)N[C@@H](CCN1CCC(c2cccc(NC(=O)C(C)C)c2)CC1)c1ccccc1 [Example 144],,,,,,16 nM
CC(C)C(=O)Nc1cccc(C2CCN(CC[C@H](NC(=O)Cc3ccc(F)cc3)c3ccccc3)CC2)c1 [Example 145],,,,,,3 nM
CC(C)C(=O)Nc1cccc(C2CCN(CCCc3c(-c4ccccc4)n(-c4ccccc4)c4ccccc34)CC2)c1 [Example 146],,,,,,3 nM
CC(C)C(=O)Nc1cccc(C2CCN(Cc3ccc(Oc4ccc(Cl)cc4)cc3)CC2)c1 [Example 150],,,,,,5.2 nM
